The text below walks through data of patent US20230111558A1, “Composition for Preventing and Treating Heart Dysfunction and its Application Thereof” (21ST CENTURY HERBS & HEALTH, priority 2021, published 2023).

Format in all cases: in vivo
One experiment relates to LDH. The experiment in a line: Lactate dehydrogenase (LDH) in ISO-induced zebrafish. Particulars: ISO=0.02 mg/L, CoQ10=4.0 mg/L, 24 hours; vs ISO group. The method, then:
(§1) Three-day post fertilization wild-type zebrafish with normal development are used for the experiment and divided them into 4 groups, namely the control group, the ISO group (ISO=0.02 mg/L), the TC group (CoQ10=4.0 mg/L), and the CoQ10 group (CoQ10=4.0 mg/L), 30 in each group; The zebrafish in the ISO group are immersed in the ISO solution prepared with embryo culture water for 24 hours, then taken out and recorded their heart rate under a microscope. The signs of successful ISO-induced myocardial injury in zebrafish are a significant decrease in heart rate and the formation of pericardial edema. The zebrafish in the TC and CoQ10 groups are respectively immersed in embryo breeding water containing ISO and TC or CoQ10, incubated for 24 hours and then taken out for photography under a microscope.
(§2) The detection of SOD and LDH are carried out according to the instructions of the kits, which are purchased from NanJing JianCheng Bioengineering Institute with the article numbers of A001-3, A020-2 and A019-2-1, respectively.

The test system of experiment [1] is ISO-induced zebrafish. Nature of the experiment: ISO-induced zebrafish pericardial edema (pericardial height). As to conditions: ISO=0.02 mg/L, CoQ10=4.0 mg/L, 24 hours; vs ISO group. The procedure:
as §1
Images are used to measure the height of the pericardium, the distance between the front of the yolk sac and the top of the pericardium, as shown by the arrow in FIG. 3(A).

For a further experiment, the system named is SOD. The experiment in a line: Superoxide dismutase (SOD) in ISO-induced zebrafish. As to conditions: ISO=0.02 mg/L, CoQ10=4.0 mg/L, 24 hours; vs ISO group. The method, then: as §1, §2
The subject of another experiment is H/R zebrafish. The experiment in a line: Cardiac function of hypoxia-reoxygenation (H/R) zebrafish. As to conditions: CoQ10=4.0 mg/L, reoxygenation 24 hours, vs H/R group. The procedure:
(§3) The zebrafish experiments are conducted in accordance to the internationally accepted standards. The wild type zebrafish strain AB is provided by the Developmental Biology Platform of Chongqing Medical University. Using the Shanghai Haisheng zebrafish aquatic ecosystem, the temperature in the fish tank is 28.5° C., the water temperature is 28-30° C., the salinity is 0.03%-0.04%, the pH is 7.2-7.6, and the photoperiod is 14 h light-10 h dark.
Three-day post fertilization wild-type of zebrafish with normal development are used for the experiment. The zebrafish are divided into 4 groups, namely the control group, the H/R (Hypoxia-reoxygenation) group, the TC group (CoQ10=4.0 mg/L), and the CoQ10 group (CoQ10=4.0 mg/L), n=30. Fill the beaker with circulating water for fish breeding, and then fill the water with high purity nitrogen. At the same time, use dissolved oxygen meter to detect the oxygen concentration in the water. Stop filling nitrogen until the oxygen concentration is stable at 0.00 mg/L. The air in the bevel glass bottle is discharged with nitrogen, and the prepared hypoxic water is put into the bevel glass bottle. The juvenile zebrafish of 3 days are put into the bottle, the cap is tightened, the glass bottle is placed into a plastic sealed bag, and then the sealed bag is vacuumed to ensure that no air enters. The end point of hypoxia is that the young fish sank to the bottom and remained motionless for 1 minute. At the same time, the zebrafish bent its body, turned the glass bottle upside down and then put it flat. The zebrafish sank head down and vertically. Then, the zebrafish are taken out and put into aquaculture water or medicine solution prepared with aquaculture water. After reoxygenation for 24 hours, the heart function indexes of zebrafish are examined.
(§4) First, the zebrafish are placed at room temperature and counted the number of heart beats within 15 seconds under a microscope. Then, the heart rate is obtained by multiplying it by 4. Then the zebrafish are placed in a petri dish, fixed with 1% low-melting agar, and held in a lateral position (with the eyes on top of the segments and the tail at the same level as the body). Fifty-eight images are generated by using an inverted fluorescence microscope for five consecutive shots. The diastolic and systolic images are selected, and the length (a) and width (b) of the ventricles are measured. The volume (V) of the ventricles is calculated with the ellipsoidal volume formula, and the surface area (S) of the ventricles is calculated with the elliptical area formula. The stroke-volume (SV), ejection fraction (EF), and fractional area change (FAC), cardiac output (CO) of zebrafish are calculated. Ventricular volume (V)=4/3π(a/2) (b/2)^2; Stroke-volume (SV)=Vdiastolic−Vsystolic; Ejection Fraction (EF)=(Vdiastole−Vsystole)/Vdiastole; Ventricular surface area (S)=(a/2) (b/2)π; Fractional Area Change (FAC)=(Sdiastolic−Ssystolic)/Sdiastolic; Cardiac Output (CO)=Cardiac volume*heart rate.

In experiment [2] the test system is ISO-induced zebrafish. The experiment in a line: Cardiac function of ISO-induced zebrafish myocardial injury model. Particulars: ISO=0.02 mg/L, CoQ10=4.0 mg/L, 24 hours; vs ISO group. The procedure: as §3, §1, §4
Experiment [3] relates to brain natriuretic peptide (BNP). Nature of the experiment: BNP gene expression by RT-PCR in ISO-induced zebrafish. Particulars: ISO=0.02 mg/L, CoQ10=4.0 mg/L, 24 hours; vs ISO group. The method, then: as §1
(§5) Zebrafish RNA extraction, reverse transcription and quantitative amplification are performed in accordance with the instructions of the kit obtained from Nanjing Vazyme Biotech Co., Ltd, the article numbers are RC101, R223-01 and Q711-02.
(§6) ANP refers to atrial natriuretic peptide, BNP refers to brain natriuretic peptide, GAPDH refers to glyceraldehyde 3-phosphate dehydrogenase.

Experiment [4] concerns atrial natriuretic peptide (ANP). The experiment in a line: ANP gene expression by RT-PCR in ISO-induced zebrafish. As to conditions: ISO=0.02 mg/L, CoQ10=4.0 mg/L, 24 hours; vs ISO group. The method, then: as §1, §5, §6

Each structure is given as a SMILES string.

Consider `COC1=C(OC)C(=O)C(C/C=C(\C)CC/C=C(\C)CC/C=C(\C)CC/C=C(\C)CC/C=C(\C)CC/C=C(\C)CC/C=C(\C)CC/C=C(\C)CC/C=C(\C)CCC=C(C)C)=C(C)C1=O` [CoQ10, Coenzyme Q10], for which the “activity of LDH” value with LDH was “reduced the activity of LDH, the result is insignificant”. For the same molecule, in the experiment with ISO-induced zebrafish [1], the “pericardial edema (pericardial height)” value is listed as “no effect”. Also, the “activity of SOD” value in the experiment on SOD is recorded as “no significantly effect”. Further, in the experiment with H/R zebrafish, the “cardiac output (CO)” value is recorded as “significantly increase”, the “ejection fraction (EF)” value is “significantly increase”, the “fractional area change (FAC)” value is listed as “significantly increase” and the heart rate entry is listed as “no significant effect”. For the same molecule, the “stroke volume (SV)” value with H/R zebrafish was “significantly increase”. Also, in the experiment with ISO-induced zebrafish [2], the “cardiac output (CO)” value is on record as “significantly increase”, the “ejection fraction (EF)” value is “significantly increase”, the “fractional area change (FAC)” value is recorded as “significantly increase” and the heart rate entry is reported as “no significant effect”. Also, the “stroke volume (SV)” value with ISO-induced zebrafish [2] was “significantly increase”. Further, the “excessive expression of BNP” value in experiment [3] is “significantly reduce”. Besides, the “excessive expression of ANP” value in experiment [4] was “significantly reduce”.
